# Where a SMILES comes first, the peptide text is derived from it. Bridges are numbered along the chain shown (N, C = ends). Where no end group is shown, it is not given here. The star is where a group is joined. Biotin = O=C1N[C@H]2[C@H](CS[C@H]2CCCCC(=O)*)N1
# What was measured:
# FMC63 IgG [1] = assay: ELISA of N-terminally biotinylated F12 variants on streptavidin plate, binding to FMC63 IgG; set-up: species or system murine; conditions: biotinylated peptides, read-out: Kd (nM), FMC63 binding affinity of F12 variants with N-terminal flanking residues
# From the text: It was further evaluated if addition of flanking residues to the terminus of a FMC63-binding mimotope would increase its binding affinity to FMC63, e.g., by increasing the mimotope surface area available for engaging in protein-protein interactions with FMC63. […] Additional Ser-Gly residues (between 3 and 15 additional residues) were included to further extend the N-terminal flanking region.
# FMC63 CAR T cells = assay: In vivo proliferation of FMC63 CAR T cells in inguinal lymph nodes (cell trace violet dilution); conditions: mice, s.c. tail base, 10 ug monovalent or 20 ug bivalent + 25 μg cyclic-di-GMP; inguinal LNs 48 hours post-vaccination
# Protocol: CD45.1^+ donor FMC63 CAR T cells were prepared as described in Example 3 and labeled with cell trace violet according to manufacturer's protocol. 2×10^6 CAR T cells were administered into CD45.2^+ recipient mice via tail vein injection on Day 0. The following day, recipient mice were vaccinated by subcutaneous injection at the tail base with the following vaccine formulation: […]
# (i) 10 ug of monovalent amph-mimotope (Amph-K-A1 or Amph-K-C2)+25 μg of cyclic-di-GMP in 1×PBS; or
# (ii) 20 ug of amph-Bi-F12-mimotope (PEG4 or PEG8)+25 μg of cyclic-di-GMP in 1×PBS.
# The volume of the formulation was 100 μL total, and the mice were administered 50 μL per each site of the tail base. Control mice received no vaccination. At 48 hours post-vaccination, recipient mice were euthanized and inguinal LNs were isolated for FACS analysis of CAR T proliferation.
# FMC63 scFv [2] = assay: Dissociation kinetics of FMC63 scFv from yeast clones, flow cytometry; type: binding, murine; conditions: yeast clones labeled with FMC63 scFv, washed, incubated 0-72 hours
# Chain of FMC63 scFv (as listed by the source): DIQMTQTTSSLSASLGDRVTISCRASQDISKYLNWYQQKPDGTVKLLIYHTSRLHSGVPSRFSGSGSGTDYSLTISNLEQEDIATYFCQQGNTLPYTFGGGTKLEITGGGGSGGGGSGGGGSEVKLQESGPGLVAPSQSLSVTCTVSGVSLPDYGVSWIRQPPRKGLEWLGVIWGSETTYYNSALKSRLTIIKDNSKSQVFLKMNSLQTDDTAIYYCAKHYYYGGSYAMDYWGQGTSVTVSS
# Protocol: The dissociation kinetics following binding of the mimotopes to FMC63 were also investigated. Briefly, yeast clone expressing F12 (SEQ ID NO: 18) or K-A1 (SEQ ID NO: 100) were incubated with labeled FMC63 scFv. The yeast were then washed, and incubated for 0-72 hours prior to analysis of the degree of FMC63 scFv labeling by flow cytometry. […] However, the yeast clone expressing K-A1 retained FMC63 even up to 72 hours, indicating slower dissociation kinetics compared to F12.
# FMC63 IgG [3] = assay: Mimotope binding to FMC63 after DTT treatment of yeast, flow cytometry; set-up: species or system murine; conditions: DTT 0.01-10 mM, 30 minutes, room temperature
# Protocol: To determine the formation of an intra-peptidyl disulfide bridge formed by the two Cys residues, mimotope expressing yeast were treated in reducing conditions and binding of the mimotope to FMC63 IgG was measured. […] Similarly, control cells expressing Aga2p (connected to the yeast surface by disulfide bridge) were treated with DTT. Following treatment, cells were labelled with biotinylated Aga2p or FMC63 and binding was measured by flow cytometry. At mild reducing conditions, Aga2p was maintained on the yeast surface while mimotope binding to FMC63 was abolished (FIG. 6). The inhibition of mimotope binding to FMC63 following treatment with a reducing agent reaffirms the formation of the disulfide bond and its importance for binding.
# Target sequence in this assay (as listed by the source): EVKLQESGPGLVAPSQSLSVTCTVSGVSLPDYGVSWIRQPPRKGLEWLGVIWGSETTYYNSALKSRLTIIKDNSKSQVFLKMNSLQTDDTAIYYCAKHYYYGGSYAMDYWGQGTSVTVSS
# Target sequence in this assay (as listed by the source): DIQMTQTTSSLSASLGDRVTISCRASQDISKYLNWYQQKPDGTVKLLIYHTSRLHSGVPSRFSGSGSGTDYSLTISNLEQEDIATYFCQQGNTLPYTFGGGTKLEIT
# FMC63 scFv [4] = assay: Yeast clone binding to biotinylated FMC63 scFv monomer, Kd by FACS; set-up: species or system murine; conditions: yeast clones
# Protocol: Identifying specific mimotope clones of varying affinities will provide flexibility in treatments. In order to validate specific sequences, clones were isolated and measured for their affinity to FMC63. Specifically, a subset of mimotope clones were selected from the fixed library sequence described in Example 5. […] Given the FDA-approved CAR is an scFV derived from the parental IgG, mimotope binding to FMC63-scFv monomer was tested using biotinylated FMC63 scFV to measure Kd by FACS (FIG. 10B). […] This screen positively identified mimotope clones with varying affinities to FMC63 which may be used for a tailored vaccine approach.
# [5] = tested on: FMC63 anti-hCD19 CAR-T cells; assay: IFNγ secretion of FMC63 CAR-T cells co-cultured with amph-mimotope coated K562 cells (ELISA); type: cell-based; conditions: K562 cells coated with 10 μM amph-mimotope; E:T 10:1; 24 hours; compared to amphiphile only control
# Protocol: To determine the effect of the CD19 amph-mimotope on chimeric antigen receptor (CAR) T cells, in vitro stimulation of CAR-T cells was assessed after co-culture with antigen presenting cells (APCs) providing the amph-mimotope (FIG. 8A). Specifically, K562 cells were pelleted at 1,000×g for 3 minutes and washed with PBS twice to remove residual protein. The cell pellet was then resuspended at 1×10^6 cells/mL in PBS containing amph-mimotope ([…]; SEQ ID NO: 5) at 10 μM and incubated at 37° C. for 30 minutes. The labeling reaction was stopped by pelleting cells and washing with PBS. To mimic antigen presenting cells in lymph nodes, K562 cells were decorated with amph-mimotope, and then co-cultured at an effector to target (E:T) ratio of 10:1 with FMC63 expressing CAR-T cells (hCD19-CAR; SEQ ID NO: 78) for 24 hours. […]
# [6] = Micelle stability of lipid-oligonucleotide conjugates in the presence of serum (FBS); type: physicochemical; conditions: for micelle stability on increasing number of guanines: in the presence of serum
# From the text: In certain embodiments, the linker is one or more guanines, for example between 1-10 guanines. It has been discovered that altering the number of guanines between a cargo such as a CpG oligonucleotide, and a lipid tail controls micelle stability in the presence of serum proteins. Therefore, the number of guanines in the linker can be selected based on the desired affinity of the conjugate for serum proteins such as albumin. When the cargo is a CpG immunostimulatory oligonucleotide and the lipid tail is a diacyl lipid, the number of guanines affects the ability of micelles formed in aqueous solution to dissociate in the presence of serum: 20% of the non-stabilized micelles (lipo-G0T10-CG) (SEQ ID NO: 138) were intact, while the remaining 80% were disrupted and bonded with FBS components.
compound,measurement,setting,value
CC[C@H](C)[C@H](NC(=O)[C@H](CCCNC(=N)N)NC(=O)[C@H](CO)NC(=O)[C@H](C)NC(=O)[C@H](CO)NC(=O)CNC(=O)CNC(=O)CNC(=O)CNC(=O)[C@H](CO)NC(=O)CNC(=O)CNC(=O)CCCC[C@@H]1SC[C@@H]2NC(=O)N[C@@H]21)C(=O)N[C@H]1CSSC[C@@H](C(=O)N[C@@H](CCCCN)C(=O)N[C@@H](CCC(=O)O)C(=O)N[C@@H](CC(C)C)C(=O)O)NC(=O)[C@H](CC(N)=O)NC(=O)[C@H](Cc2c[nH]c3ccccc23)NC(=O)[C@@H]2CCCN2C1=O [SEQ ID NO: 97] (Biotin-GGSGGGGSASRICPWNCKEL-OH; disulfide 13-17),Kd,FMC63 IgG [1],0.139 nM
CC[C@H](C)[C@H](NC(=O)[C@H](CCCNC(=N)N)NC(=O)[C@H](CO)NC(=O)[C@H](C)NC(=O)[C@H](CO)NC(=O)CNC(=O)CNC(=O)CNC(=O)CNC(=O)[C@H](CO)NC(=O)CNC(=O)CNC(=O)CNC(=O)CNC(=O)[C@H](CO)NC(=O)CNC(=O)CCCC[C@@H]1SC[C@@H]2NC(=O)N[C@@H]21)C(=O)N[C@H]1CSSC[C@@H](C(=O)N[C@@H](CCCCN)C(=O)N[C@@H](CCC(=O)O)C(=O)N[C@@H](CC(C)C)C(=O)O)NC(=O)[C@H](CC(N)=O)NC(=O)[C@H](Cc2c[nH]c3ccccc23)NC(=O)[C@@H]2CCCN2C1=O [SEQ ID NO: 98] (Biotin-GSGGGGSGGGGSASRICPWNCKEL-OH; disulfide 17-21),Kd,FMC63 IgG [1],0.134 nM
CC[C@H](C)[C@H](NC(=O)[C@H](CCCNC(=N)N)NC(=O)[C@H](CO)NC(=O)[C@H](C)NC(=O)[C@H](CO)NC(=O)CNC(=O)CNC(=O)CNC(=O)CNC(=O)[C@H](CO)NC(=O)CNC(=O)CNC(=O)CNC(=O)CNC(=O)[C@H](CO)NC(=O)CNC(=O)CNC(=O)CNC(=O)CNC(=O)CCCC[C@@H]1SC[C@@H]2NC(=O)N[C@@H]21)C(=O)N[C@H]1CSSC[C@@H](C(=O)N[C@@H](CCCCN)C(=O)N[C@@H](CCC(=O)O)C(=O)N[C@@H](CC(C)C)C(=O)O)NC(=O)[C@H](CC(N)=O)NC(=O)[C@H](Cc2c[nH]c3ccccc23)NC(=O)[C@@H]2CCCN2C1=O [SEQ ID NO: 99] (Biotin-GGGGSGGGGSGGGGSASRICPWNCKEL-OH; disulfide 20-24),Kd,FMC63 IgG [1],0.153 nM
Amph-K-C2: monovalent amph-mimotope: mimotope SEQ ID NO: 129 conjugated to DSPE-PEG2k (GGGSASRICPWNCKELPSPPRIFGNR; not fully specified; DSPE-PEG2k conjugate; Synthetic: Mimotope of Amph-K-C2),proliferation of CAR T cells in vivo measured by cell violet dilution,FMC63 CAR T cells,observed
PRKHSGRICPWNCKELDNPPFIFGNR [K-A1],time of retention of FMC63 scFv labeling after wash,FMC63 scFv [2],≥ 72 h
RHCPWNCSLL [Clone A1],mimotope binding to FMC63 after DTT treatment,FMC63 IgG [3],abolished
RICPWNCKEL [Clone F12],time of retention of FMC63 scFv labeling after wash,FMC63 scFv [2],≤ 0.5 h
RICPWSCMVV [Clone B7],Kd,FMC63 scFv [4],> 1000 nM
RMCPWSCRPH [Clone A8],Kd,FMC63 scFv [4],> 1000 nM
amph-mimotope: DSPE-PEG2000 conjugated onto the N-terminus of synthesized cyclic mimotope RHCPWNCSLL (SEQ ID NO: 5) (disulfide 3-7 (inferred); not fully specified (N-terminus)),activation of CAR-T cells measured by IFNγ secretion,[5],significantly activated
"lipo-G0T10-CG: diacyl lipid tail, G0T10 linker, CpG immunostimulatory oligonucleotide; non-stabilized micelles (DNA TTTTTTTTTTCG; diacyl lipid tail conjugated, backbone chemistry not given here)",percentage of micelles disrupted and bonded with FBS components,[6]; in the presence of serum (FBS),80%
"lipo-G8T2-CG: diacyl lipid tail, G8T2 linker, CpG immunostimulatory oligonucleotide (DNA GGGGGGGGTTCG; diacyl lipid tail conjugated, backbone chemistry not given here)",micelle stability on increasing number of guanines,[6],did not further enhance micelle stability
"lipo-G10T0-CG: diacyl lipid tail, G10T0 linker, CpG immunostimulatory oligonucleotide (DNA GGGGGGGGGGCG; diacyl lipid tail conjugated, backbone chemistry not given here)",micelle stability on increasing number of guanines,[6],did not further enhance micelle stability
